Measurements as given in PMC12064818, “A general assay platform to study protein pharmacology using ligand-dependent structural dynamics” (Nature Communications, 2025).

Molecular target: T1, FLuc-C-HiBiT (Photinus pyralis, UniProt P08659)
T1 construct: firefly luciferase with C-terminal HiBiT tag, E. coli expressed
Test: biochemical
Conditions: enzyme activity, 10 uM ATP; read-out: IC50 or SDR50 (mM) / FLuc E

T1 sequence (P08659 whole entry, looked up): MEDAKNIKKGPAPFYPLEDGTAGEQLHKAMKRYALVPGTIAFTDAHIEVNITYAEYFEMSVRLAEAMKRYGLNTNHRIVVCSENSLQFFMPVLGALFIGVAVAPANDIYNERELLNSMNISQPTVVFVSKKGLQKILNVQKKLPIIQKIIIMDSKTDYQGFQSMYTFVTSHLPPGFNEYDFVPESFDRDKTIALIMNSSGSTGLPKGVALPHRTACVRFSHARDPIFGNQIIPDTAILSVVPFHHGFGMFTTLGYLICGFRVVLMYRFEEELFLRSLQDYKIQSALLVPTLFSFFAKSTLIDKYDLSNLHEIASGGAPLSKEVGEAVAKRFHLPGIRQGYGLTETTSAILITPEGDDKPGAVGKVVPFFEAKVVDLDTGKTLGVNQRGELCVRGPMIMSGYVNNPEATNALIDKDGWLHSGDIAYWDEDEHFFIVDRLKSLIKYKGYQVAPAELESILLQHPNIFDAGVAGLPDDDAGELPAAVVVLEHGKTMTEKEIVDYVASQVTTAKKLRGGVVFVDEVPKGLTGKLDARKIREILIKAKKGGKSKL

| IC50 [mM] | Compound |
| --- | --- |
| 0.00114 | COCCN1CCC2(C1)CN(C)c1ccc(C(=O)Nc3ccccc3)cc12 (centres unmarked) [NCGC00419345-01] |
| 0.0101 | COCCN1CCC2(C1)CN(C)c1ccc(C(=O)Nc3ccn(C)n3)cc12 (centres unmarked) [NCGC00419376-01] |
| > 0.03 | CC(C)(Oc1nn(CC2CC2)c2ccc(CN3CCCC3)cc12)C(=O)NC1CCOCC1 [NCGC00419513-01] |
| 0.0143 | CSCC(=O)N[C@H]1CCN2C(=O)c3cc(/C=C/c4ccccc4)ccc3NC(=O)[C@H]12 [NCGC00421159-01] |
| 0.00989 | COc1ccc(/C=C/c2ccc3c(c2)C(=O)N2CC[C@H](NC(=O)COCC(=O)O)[C@H]2C(=O)N3)cc1 [NCGC00421238-01] |
| 0.018 | Cc1nn(-c2ccc(C(C)C)cc2)c(C)c1[C@@H]1C=C[C@@H](NC(=O)Nc2ccccc2)C1 [NCGC00421405-01] |
| 0.0064 | COc1ccc(-n2nc(C)c([C@@H]3C=C[C@@H](NC(=O)NCc4ccccc4)C3)c2C)cc1 [NCGC00421411-01] |
| > 0.03 | Cc1nn(-c2ccc(C(C)C)cc2)c(C)c1[C@@H]1C=C[C@@H](NC(=O)CC2(CC(=O)O)CCCC2)C1 [NCGC00421413-01] |
| 0.00624 | COc1cccc(Nc2nc(-c3ccccc3)no2)c1 [NCGC00422289-01] |
| 0.0176 | c1ccc(CNc2nc(-c3ccccc3)no2)cc1 [NCGC00422290-01] |
| 0.00495 | CCOc1ccc(Nc2nc(-c3ccccc3)no2)cc1 [NCGC00422297-01] |
| 0.00624 | CCc1ccc(Nc2nc(-c3ccccc3F)no2)cc1 [NCGC00422308-01] |
| 0.00624 | Cc1cc(C)cc(Nc2nc(-c3ccccc3F)no2)c1 [NCGC00422314-01] |

Further lines, the compound ahead of its results:

| Compound | IC50 [mM] |
| --- | --- |
| Cc1csc(NC(=O)c2ccc3c(c2)OCC(=O)N(C)C3)n1 [NCGC00418513-01] | 0.018 |
| COCCN1CCC2(C1)CN(C)c1ccc(C(=O)Nc3ccc(F)cc3)cc12 (centres unmarked) [NCGC00419287-01] | 0.00718 |
| CN1CCC(NC(=O)C(C)(C)Oc2nn(Cc3ncccn3)c3ccccc23)CC1 [NCGC00419638-01] | > 0.03 |
| C[C@H](C(=O)N1CCOCC1)C1CC[C@@]2(C)Cc3sc(-c4ccccc4)nc3[C@@H](C)[C@@H]2[C@H]1O (some centres unmarked) [NCGC00421021-01] | 0.00351 |
| C[C@H](C(=O)NCCN1CCOCC1)C1CC[C@@]2(C)Cc3sc(-c4ccccc4)nc3[C@@H](C)[C@@H]2[C@H]1O (some centres unmarked) [NCGC00421022-01] | 0.000989 |
| C[C@H](C(=O)N(C)CCC#N)C1CC[C@@]2(C)Cc3sc(NC(=O)c4cccn4C)nc3[C@@H](C)[C@@H]2[C@H]1O (some centres unmarked) [NCGC00421252-01] | 0.007 |
| C=CCN(C)C(=O)[C@@H](C)C1CC[C@@]2(C)Cc3sc(NC(=O)CN(C)C)nc3[C@@H](C)[C@@H]2[C@H]1O (some centres unmarked) [NCGC00421253-01] | > 0.03 |
| COc1ccc(NC(=O)N[C@@H]2C=C[C@@H](c3c(C)nn(-c4ccc(C(C)C)cc4)c3C)C2)cc1 [NCGC00421407-01] | > 0.03 |
| O=C(N[C@H]1CCN2C(=O)c3cc(/C=C/c4ccc(O)cc4)ccc3NC(=O)[C@H]12)c1cnccn1 [NCGC00421527-01] | > 0.03 |
| C[C@@H]1C(=O)O[C@H]2[C@H]1CC[C@@]1(C)Cc3sc(Nc4cccnc4)nc3[C@@H](C)[C@H]21 [NCGC00421621-01] | 0.000453 |
| C[C@@H]1C(=O)O[C@H]2[C@H]1CC[C@@]1(C)Cc3sc(NC(=O)c4c(F)cccc4F)nc3[C@@H](C)[C@H]21 [NCGC00421654-01] | 0.00989 |
| CCOC(=O)c1cccc(Nc2nc(-c3ccccc3)no2)c1 [NCGC00422292-01] | 0.00624 |
| Fc1ccccc1Nc1nc(-c2ccccc2)no1 [NCGC00422293-01] | 0.0007 |
| Fc1cccc(Nc2nc(-c3ccccc3)no2)c1 [NCGC00422294-01] | 0.007 |
| Fc1ccc(Nc2nc(-c3ccccc3)no2)cc1 [NCGC00422295-01] | 0.00624 |
| COc1ccc(Nc2nc(-c3ccccc3F)no2)cc1OC [NCGC00422302-01] | 0.00351 |
| Fc1ccc(Nc2nc(-c3ccccc3F)no2)cc1 [NCGC00422310-01] | 0.00989 |
| COc1ccc(-c2noc(Nc3ccc(OC)c(OC)c3)n2)cc1 [NCGC00422322-01] | 0.0111 |
| COc1ccc(-c2noc(N3CCc4ccccc43)n2)cc1 [NCGC00422328-01] | 0.00313 |
